This passage reports IC50 results from patent publication US10532995B2, “Substituted pyrazole compounds as serine protease inhibitors” (VERSEON CORPORATION, priority 2015, dated 2020).

The target in the assay is T1, Human thrombin (Homo sapiens, UniProt P00734).
T1 construct: purchased Haematologic Technologies Inc
As to the kind of experiment: Thrombin protease activity inhibition, chromogenic substrate S-2238. Type of assay: biochemical. The following applies: 3 nM thrombin, 125 μM S-2238, 10 min pre-incubation, RT. Summed up: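 Thrombin at 3 nM final in 0.05 M Tris pH 7.4, 0.015 M NaCl, 0.01% PEG-8000, at room temperature; compounds as ten-point three-fold dilutions.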
For orientation: IC50 means the midpoint of a concentration-inhibition curve. Compound `O=C(N1CCOCC1)N1C2CCC1CC(c1cc(NCc3ccc(Cl)s3)[nH]n1)C2` (stereo not shown) [Entry 214, N-[(5-chlorothiophen-2-yl)methyl]-3-[8-(morpholine-4-carbonyl)-8-azabicyclo[3.2.1]octan-3-yl]-1H-pyrazol-5-amine] showed an IC50 greater than 100 µM.
For `Cc1cccc(CN2CCC(c3cc(NCc4ccc(Cl)s4)[nH]n3)CC2)n1` [Entry 220, N-[(5-chlorothiophen-2-yl)methyl]-3-1-[(6-methylpyridin-2-yl)methyl]piperidin-4-yl-1H-pyrazol-5-amine] the value was greater than 100 µM.
Consider `FC(F)(F)C(c1ccccn1)N1CCC(c2cc(NCc3ccc(Cl)s3)[nH]n2)CC1` (stereo not shown) [Entry 221, N-[(5-chlorothiophen-2-yl)methyl]-3-1-[2,2,2-trifluoro-1-(pyridin-2-yl)ethyl]piperidin-4-yl-1H-pyrazol-5-amine], for which the IC50 is greater than 100 µM.
For `FC(F)(CN1CCC(c2cc(NCc3ccc(Cl)s3)[nH]n2)CC1)c1ccccn1` [Entry 222, N-[(5-chlorothiophen-2-yl)methyl]-3-1-[2,2-difluoro-2-(pyridin-2-yl)ethyl]piperidin-4-yl-1H-pyrazol-5-amine] the value was greater than 100 µM.
Take `Clc1ccc(CNc2cc(C3CCN(CCN4CCOCC4)CC3)n[nH]2)s1` [Entry 223, N-[(5-chlorothiophen-2-yl)methyl]-3-1-[2-(morpholin-4-yl)ethyl]piperidin-4-yl-1H-pyrazol-5-amine]: the IC50 was in the range of 1 to 10 µM.
For `Clc1ccc(CNc2cc(C3CCN(CCc4ccccn4)CC3)n[nH]2)s1` [Entry 224, N-[(5-chlorothiophen-2-yl)methyl]-3-1-[2-(pyridin-2-yl)ethyl]piperidin-4-yl-1H-pyrazol-5-amine] the value was greater than 100 µM; for `CS(=O)(=O)N1C2CCC1CC(c1cc(NCc3ccc(Cl)s3)n(C(=O)c3cscn3)n1)C2` (stereo not shown) [Entry 225, N-[(5-chlorothiophen-2-yl)methyl]-3-8-methanesulfonyl-8-azabicyclo[3.2.1]octan-3-yl-1-(1,3-thiazole-4-carbonyl)-1H-pyrazol-5-amine], less than 0.1 µM; for `CS(=O)(=O)N1C2CCC1CC(c1cc(NCc3ccc(Cl)s3)[nH]n1)C2` (stereo not shown) [Entry 226, N-[(5-chlorothiophen-2-yl)methyl]-3-8-methanesulfonyl-8-azabicyclo[3.2.1]octan-3-yl-1H-pyrazol-5-amine], greater than 100 µM.
For `CC1(C(=O)n2nc(C3CCOCC3)c(F)c2NCc2ccc(Cl)s2)CCOCC1` [Entry 229, N-[(5-chlorothiophen-2-yl)methyl]-4-fluoro-1-(4-methyloxane-4-carbonyl)-3-(oxan-4-yl)-1H-pyrazol-5-amine] the value was less than 0.1 µM.
With `Cc1c(C2CCN(C(=O)c3cscn3)CC2)n[nH]c1NCc1ccc(Cl)s1` [Entry 236, N-[(5-chlorothiophen-2-yl)methyl]-4-methyl-3-[1-(1,3-thiazole-4-carbonyl)piperidin-4-yl]-1H-pyrazol-5-amine], the IC50 was greater than 100 µM.
For `Cc1c(C2CCN(C(=O)N3CCOCC3)CC2)n[nH]c1NCc1ccc(Cl)s1` [Entry 237, N-[(5-chlorothiophen-2-yl)methyl]-4-methyl-3-[1-(morpholine-4-carbonyl)piperidin-4-yl]-1H-pyrazol-5-amine] the value was 10 to 100 µM.
Compound `O=S(=O)(N1CCOCC1)N1CCC(c2cc(N(Cc3ccc(Cl)s3)S(=O)(=O)N3CCOCC3)[nH]n2)CC1` [Entry 238, N-[(5-chlorothiophen-2-yl)methyl]-N-3-[1-(morpholine-4-sulfonyl)piperidin-4-yl]-1H-pyrazol-5-ylmorpholine-4-sulfonamide] registered an IC50 of 1 to 10 µM.
For `C=CCOC(=O)N1CCN(C(=O)N2CCOCC2)CC1c1cc(NCc2ccc(Cl)s2)n(C(=O)c2cscn2)n1` (stereo not shown) [Entry 240, prop-2-en-1-yl 2-(5-[(5-chlorothiophen-2-yl)methyl]amino-1-(1,3-thiazole-4-carbonyl)-1H-pyrazol-3-yl)-4-(morpholine-4-carbonyl)piperazine-1-carboxylate] the value was 0.1 to 1 µM.
For `C=CCOC(=O)N1CCN(C(=O)CN2CCOCC2)CC1c1cc(NCc2ccc(Cl)s2)n(C(=O)c2cscn2)n1` (stereo not shown) [Entry 241, prop-2-en-1-yl 2-(5-[(5-chlorothiophen-2-yl)methyl]amino-1-(1,3-thiazole-4-carbonyl)-1H-pyrazol-3-yl)-4-[2-(morpholin-4-yl)acetyl]piperazine-1-carboxylate] the value was 0.1 to 1 µM; for `C=CCOC(=O)N1CCN(S(C)(=O)=O)CC1c1cc(NCc2ccc(Cl)s2)n(C(=O)c2cscn2)n1` (stereo not shown) [Entry 242, prop-2-en-1-yl 2-(5-[(5-chlorothiophen-2-yl)methyl]amino-1-(1,3-thiazole-4-carbonyl)-1H-pyrazol-3-yl)-4-methanesulfonylpiperazine-1-carboxylate], 0.1 to 1 µM; for `C=CCOC(=O)N1CCCC1c1cc(NCc2ccc(Cl)s2)n(C(=O)c2cscn2)n1` (stereo not shown) [Entry 243, prop-2-en-1-yl 2-(5-[(5-chlorothiophen-2-yl)methyl]amino-1-(1,3-thiazole-4-carbonyl)-1H-pyrazol-3-yl)pyrrolidine-1-carboxylate], less than 0.1 µM.
For `C=CCOC(=O)N1CCN(C(=O)N2CCOCC2)CC1c1cc(NCc2ccc(Cl)s2)n(C(=O)C(C)(C)C)n1` (stereo not shown) [Entry 244, prop-2-en-1-yl 2-(5-[(5-chlorothiophen-2-yl)methyl]amino-1-(2,2-dimethylpropanoyl)-1H-pyrazol-3-yl)-4-(morpholine-4-carbonyl)piperazine-1-carboxylate] the value was 1 to 10 µM.
Turning to `C=CCOC(=O)N1CCN(C(=O)CN2CCOCC2)CC1c1cc(NCc2ccc(Cl)s2)n(C(=O)C(C)(C)C)n1` (stereo not shown) [Entry 245, prop-2-en-1-yl 2-(5-[(5-chlorothiophen-2-yl)methyl]amino-1-(2,2-dimethylpropanoyl)-1H-pyrazol-3-yl)-4-[2-(morpholin-4-yl)acetyl]piperazine-1-carboxylate], the IC50 lay in the range of 1 to 10 µM.
With `C=CCOC(=O)N1CCN(S(C)(=O)=O)CC1c1cc(NCc2ccc(Cl)s2)n(C(=O)C(C)(C)C)n1` (stereo not shown) [Entry 246, prop-2-en-1-yl 2-(5-[(5-chlorothiophen-2-yl)methyl]amino-1-(2,2-dimethylpropanoyl)-1H-pyrazol-3-yl)-4-methanesulfonylpiperazine-1-carboxylate], the IC50 is greater than 100 µM.
For `C=CCOC(=O)N1CCCC1c1cc(NCc2ccc(Cl)s2)n(C(=O)C(C)(C)C)n1` (stereo not shown) [Entry 247, prop-2-en-1-yl 2-(5-[(5-chlorothiophen-2-yl)methyl]amino-1-(2,2-dimethylpropanoyl)-1H-pyrazol-3-yl)pyrrolidine-1-carboxylate] the value was less than 0.1 µM; for `C=CCOC(=O)N1CCN(CC(F)(F)F)CC1c1cc(NCc2ccc(Cl)s2)[nH]n1` (stereo not shown) [Entry 248, prop-2-en-1-yl 2-(5-[(5-chlorothiophen-2-yl)methyl]amino-1H-pyrazol-3-yl)-4-(2,2,2-trifluoroethyl)piperazine-1-carboxylate], greater than 100 µM; for `C=CCOC(=O)N1CCN(C(=O)N2CCOCC2)CC1c1cc(NCc2ccc(Cl)s2)[nH]n1` (stereo not shown) [Entry 249, prop-2-en-1-yl 2-(5-[(5-chlorothiophen-2-yl)methyl]amino-1H-pyrazol-3-yl)-4-(morpholine-4-carbonyl)piperazine-1-carboxylate], greater than 100 µM.
